Measured values from patent US4472404A, “8-Quinolinyl carbamates and their use as urinary tract antimicrobials” (priority 1982, dated 1984).
In brackets after ≈: the same amount, converted by molar mass. Like-named read-outs stand apart in the source and are kept apart here.

How the values were obtained:
Format in all cases: cell-based
[1] = tested on: Enterobacter aerogenes ATCC 13048; experiment: Minimum inhibitory concentration, urinary tract organisms (Example 13); details: Klebsiella aerogenes
Protocol: (§1) The test compound was added to molten agar as a solution (when conveniently soluble in a solvent such as dimethylformamide) or a suspension forming a mixture having a concentration of 0.05 percent (500 ppm). The mixture was stirred and poured into plates to harden. When hardened, the plates were inoculated with various bacteria and fungi. The bacteria-inoculated plates were incubated at 37° C. for 24 hours, while the fungi-inoculated plates were incubated for about 72-120 hours. Following incubation, the plates were examined for growth or inhibition of the respective organisms.
(§2) After the initial readings, compounds showing sufficient activity were re-tested at various concentrations to determine the minimum inhibitory concentration (in ppm) of the compounds of the invention against the various bacteria and fungi tested.
(§3) Following a procedure substantially the same as that described in Example 12, the minimum inhibitory concentration for the compounds described herein was determined for various organisms representative of those commonly associated with urinary tract infections.
(§4) The organisms used in this procedure and the abbreviations designated in Table 3 are as follows: […]

[2] = tested on: Pseudomonas aeruginosa ATCC 27853; experiment: as above
Protocol: as §1, §2, §3, §4

Serratia marcescens M-1 = experiment: as above
Protocol: as §1, §2, §3, §4

[3] = tested on: Klebsiella pneumoniae ATCC 23357; experiment: as above
Protocol: as §1, §2, §3, §4

[4] = tested on: Pseudomonas aeruginosa PRD-10; experiment: as above
Protocol: as §1, §2, §3, §4

[5] = tested on: Klebsiella pneumoniae M-6; experiment: as above
Protocol: as §1, §2, §3, §4

[6] = tested on: Escherichia coli ATCC 9723; experiment: as above
Protocol: as §1, §2, §3, §4

[7] = tested on: Pseudomonas aeruginosa ATCC 10145; experiment: as above
Protocol: as §1, §2, §3, §4

[8] = tested on: Escherichia coli ATCC 4157; experiment: as above
Protocol: as §1, §2, §3, §4

[9] = tested on: Escherichia coli ATCC 11229; experiment: as above
Protocol: as §1, §2, §3, §4

[10] = tested on: Staphylococcus aureus ATCC 25923; experiment: as above
Protocol: as §1, §2, §3, §4

Proteus mirabilis 470/1 = experiment: as above
Protocol: as §1, §2, §3, §4

[11] = tested on: Klebsiella pneumoniae M-1; experiment: as above
Protocol: as §1, §2, §3, §4

[12] = tested on: Pseudomonas aeruginosa ATCC 7700; experiment: as above
Protocol: as §1, §2, §3, §4

[13] = tested on: Escherichia coli ATCC 25922; experiment: as above
Protocol: as §1, §2, §3, §4

[14] = tested on: Klebsiella pneumoniae M-2; experiment: as above
Protocol: as §1, §2, §3, §4

Ceratocystis ips = experiment: Agar-plate minimum inhibitory concentration (Example 12); details: read-out: Minimum Inhibitory Concentration
Protocol: as §1, §2

Candida pelliculosa = experiment: as above; details: Hansenula anomala, read-out: Minimum Inhibitory Concentration
Protocol: as §1, §2

Streptococcus mutans = experiment: as above; details: read-out: Minimum Inhibitory Concentration
Protocol: as §1, §2

Bacillus subtilis = experiment: as above; details: read-out: Minimum Inhibitory Concentration
Protocol: as §1, §2

Aspergillus niger = experiment: as above; details: read-out: Minimum Inhibitory Concentration
Protocol: as §1, §2

[15] = tested on: Trichophyton mentagrophytes; experiment: as above; details: read-out: Minimum Inhibitory Concentration
Protocol: as §1, §2

Candida albicans = experiment: as above; details: read-out: Minimum Inhibitory Concentration
Protocol: as §1, §2

Salmonella typhosa = experiment: as above; details: Salmonella enterica, read-out: Minimum Inhibitory Concentration
Protocol: as §1, §2

[16] = M1, read-out: Minimum Inhibitory Concentration

Which MIC ([1]; ATCC13048, Ea 13048, read-out: Minimum Inhibitory Concentration) does the source give for CCOC(=O)CNC(=O)Oc1cccc2cccnc12 [Example 9, Ethyl N-(((8-quinolinyl)oxy)carbonyl)glycinate] here?
Its MIC is 100 µg/mL (≈ 365 µM).

What about the MIC ([2]; ATCC27853, Pa 27853, read-out: Minimum Inhibitory Concentration) of the same compound?
Its MIC is 250 µg/mL (≈ 911 µM).

What about the MIC (Serratia marcescens M-1; M1, Sr M-1, read-out: Minimum Inhibitory Concentration) of the same compound?
The MIC was 100 µg/mL (≈ 365 µM).

What about the MIC ([3]; ATCC23357, Kp 23357, read-out: Minimum Inhibitory Concentration) of the same compound?
The MIC was 50 µg/mL (≈ 182 µM).

And the MIC ([4]; PRD10, Pa PRD-10, read-out: Minimum Inhibitory Concentration)?
Its MIC is 500 µg/mL (≈ 1820 µM).

What about the MIC ([5]; M6, Kp M-6, read-out: Minimum Inhibitory Concentration) of the same compound?
The MIC was 75 µg/mL (≈ 273 µM).

And the MIC ([6]; ATCC9723, Ec 9723, read-out: Minimum Inhibitory Concentration)?
The MIC was 75 µg/mL (≈ 273 µM).

What about the MIC ([7]; ATCC10145, Pa 10145, read-out: Minimum Inhibitory Concentration) of the same compound?
Its MIC is 50 µg/mL (≈ 182 µM).

What about the MIC ([8]; ATCC4157, Ec 4157, read-out: Minimum Inhibitory Concentration) of the same compound?
The MIC was 75 µg/mL (≈ 273 µM).

What about the MIC ([9]; ATCC11229, Ec 11229, read-out: Minimum Inhibitory Concentration) of the same compound?
Its MIC is 75 µg/mL (≈ 273 µM).

And the MIC ([10]; ATCC25923, Sa 25923, read-out: Minimum Inhibitory Concentration)?
Its MIC is 10 µg/mL (≈ 36.5 µM).

What about the MIC (Proteus mirabilis 470/1; Pm 470/1, read-out: Minimum Inhibitory Concentration) of the same compound?
The MIC was 75 µg/mL (≈ 273 µM).

What about the MIC ([11]; M1, Kp M-1, read-out: Minimum Inhibitory Concentration) of the same compound?
The MIC was 100 µg/mL (≈ 365 µM).

And the MIC ([12]; ATCC7700, Pa 7700, read-out: Minimum Inhibitory Concentration)?
The MIC was 500 µg/mL (≈ 1820 µM).

And the MIC ([13]; ATCC25922, Ec 25922, read-out: Minimum Inhibitory Concentration)?
The MIC was 75 µg/mL (≈ 273 µM).

And the MIC ([14]; M2, Kp M-2, read-out: Minimum Inhibitory Concentration)?
Its MIC is 100 µg/mL (≈ 365 µM).

And the MIC (Ceratocystis ips; Ceratocystis ips, agar, 72-120 hours)?
Its MIC is 100 µg/mL (≈ 365 µM).

What about the MIC (Candida pelliculosa; Candida pelliculosa, agar, 72-120 hours) of the same compound?
The MIC was 50 µg/mL (≈ 182 µM).

And the MIC (Streptococcus mutans; agar, 37° C., 24 hours)?
Its MIC is 5 µg/mL (≈ 18.2 µM).

What about the MIC (Bacillus subtilis; agar, 37° C., 24 hours) of the same compound?
The MIC was 10 µg/mL (≈ 36.5 µM).

And the MIC (Aspergillus niger; agar, 72-120 hours)?
Its MIC is 100 µg/mL (≈ 365 µM).

And the MIC ([15]; agar, 72-120 hours)?
Its MIC is 50 µg/mL (≈ 182 µM).

And the MIC (Candida albicans; agar, 72-120 hours)?
The MIC was 100 µg/mL (≈ 365 µM).

And the MIC (Salmonella typhosa; Salmonella typhosa, agar, 37° C., 24 hours)?
The MIC was 50 µg/mL (≈ 182 µM).

CNC(=O)Oc1c(Cl)cc(Cl)c2cccnc12 [Example 10, 5,7-Dichloro-8quinolinyl N-methylcarbamate] was tested. Which MIC ([1]; ATCC13048, read-out: Minimum Inhibitory Concentration) did it give?
Its MIC is 25 µg/mL (≈ 92.2 µM).

And the MIC ([2]; ATCC27853, read-out: Minimum Inhibitory Concentration)?
Its MIC is 50 µg/mL (≈ 184 µM).

What about the MIC (Serratia marcescens M-1; [16]) of the same compound?
Its MIC is 25 µg/mL (≈ 92.2 µM).

What about the MIC ([3]; ATCC23357, read-out: Minimum Inhibitory Concentration) of the same compound?
Its MIC is 10 µg/mL (≈ 36.9 µM).

What about the MIC ([4]; PRD10, read-out: Minimum Inhibitory Concentration) of the same compound?
The MIC was 25 µg/mL (≈ 92.2 µM).

And the MIC ([5]; M6, read-out: Minimum Inhibitory Concentration)?
Its MIC is 25 µg/mL (≈ 92.2 µM).

What about the MIC ([6]; ATCC9723, read-out: Minimum Inhibitory Concentration) of the same compound?
The MIC was 10 µg/mL (≈ 36.9 µM).

What about the MIC ([7]; ATCC10145, read-out: Minimum Inhibitory Concentration) of the same compound?
The MIC was 10 µg/mL (≈ 36.9 µM).

What about the MIC ([8]; ATCC4157, read-out: Minimum Inhibitory Concentration) of the same compound?
Its MIC is 10 µg/mL (≈ 36.9 µM).

What about the MIC ([9]; ATCC11229, read-out: Minimum Inhibitory Concentration) of the same compound?
The MIC was 10 µg/mL (≈ 36.9 µM).

And the MIC ([10]; ATCC25923, read-out: Minimum Inhibitory Concentration)?
The MIC was under 5 µg/mL.

What about the MIC (Proteus mirabilis 470/1; 470/1, read-out: Minimum Inhibitory Concentration) of the same compound?
Its MIC is 10 µg/mL (≈ 36.9 µM).

And the MIC [11, 16]?
The MIC was 25 µg/mL (≈ 92.2 µM).

And the MIC ([12]; ATCC7700, read-out: Minimum Inhibitory Concentration)?
Its MIC is 50 µg/mL (≈ 184 µM).

And the MIC ([13]; ATCC25922, read-out: Minimum Inhibitory Concentration)?
The MIC was 10 µg/mL (≈ 36.9 µM).

And the MIC ([14]; M2, read-out: Minimum Inhibitory Concentration)?
Its MIC is 25 µg/mL (≈ 92.2 µM).

What about the MIC (Ceratocystis ips) of the same compound?
The MIC was 50 µg/mL (≈ 184 µM).

And the MIC (Candida pelliculosa)?
Its MIC is 5 µg/mL (≈ 18.4 µM).

And the MIC (Streptococcus mutans; 24 h)?
Its MIC is 10 µg/mL (≈ 36.9 µM).

What about the MIC (Bacillus subtilis; 24 h) of the same compound?
The MIC was 0.5 µg/mL (≈ 1.84 µM).

And the MIC (Aspergillus niger)?
The MIC was 10 µg/mL (≈ 36.9 µM).

What about the MIC [15] of the same compound?
Its MIC is 50 µg/mL (≈ 184 µM).

And the MIC (Candida albicans)?
The MIC was 5 µg/mL (≈ 18.4 µM).

And the MIC (Salmonella typhosa; TYPHOSA, 24 h)?
The MIC was 10 µg/mL (≈ 36.9 µM).
